Values after ≈ are worked out from the molar mass of the structure shown. Like-named read-outs stand apart in the source and are kept apart here.

A short description of one data set: Solubility pH 7. Particulars: pH 7, aqueous buffer.
Data set [1] concerns the target human 20S immunoproteasome (i20S) (Homo sapiens, UniProt P28062). As to the kind of experiment: 20S proteasome assay, chymotrypsin-like activity (succinyl-Leu-Leu-Val-Tyr-AMC), i20S. Type of data set: biochemical. An excerpt:
(§1) Assay buffer consisted of TE buffer [20 mmol/L Tris (pH 8.0), 0.5 mmol/L EDTA] with (20S) or without (cell lysate) 0.03% SDS. Reactions were initiated by enzyme or lysate addition and monitored for AMC product formation at 27jC with a plate-based spectofluorometer (Tecan).

Data set [2] deals with human constitutive 20S proteasome (c20S) (Homo sapiens, UniProt P28074). As to the kind of experiment: 20S proteasome assay, chymotrypsin-like activity (succinyl-Leu-Leu-Val-Tyr-AMC), c20S. Type of data set: biochemical. Particulars: LLVY substrate, 1 h continuous.
From the text: as §1

The target of data set [3] is T1, proteasome subunit β5 (beta5) (Homo sapiens, UniProt P28074).
T1 construct: Lysate from the human acute lymphoblastic leukemia cell line, MOLT-4; endogenous in cells; host or cells: MOLT-4
As to the kind of experiment: Proteasome active-site ELISA (ProCISE), beta5, MOLT-4 lysate. Type of data set: biochemical. The note with it: MOLT4 lysate, human, 1 h continuous treatment, 25° C. In a few lines: (§2)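 MOLT-4 cell lysate treated 1 h at 25 °C with compound; probe-bound subunits denatured, pulled down on streptavidin beads and detected with subunit-specific antibodies plus HRP chemiluminescence.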

The target in data set [4] is T2, immunoproteasome subunit LMP7 (Homo sapiens, UniProt P28062).
T2 construct: Lysate from the human acute lymphoblastic leukemia cell line, MOLT-4; endogenous in cells; host or cells: MOLT-4
Kind of data set: Proteasome active-site ELISA (ProCISE), LMP7, MOLT-4 lysate. Type of data set: biochemical. In a few lines: as §2
A general note: In an ELISA, binding on a coated surface is turned into a signal by an enzyme label.

Where [5] appears, read: read-out: LLVY i20S Hu 1 h CONT: IC50, LLVY substrate, 1 h continuous.
Where [6] appears, read: MOLT4 lysate, 1 h continuous treatment, 25° C.
The mark [7] stands for this setting: read-out: ProCISE beta5 MOLT4 lysate Hu 1 h CONT: IC50.
[8] abbreviates: read-out: ProCISE LMP7 MOLT4 lysate Hu 1 h CONT: IC50, 1 h continuous treatment, 25° C.

For orientation: solubility means the dissolved amount per volume that the medium holds. The IC50 is the midpoint of a concentration-inhibition curve. For the compound `COc1ccc(C[C@H](NC(=O)[C@H](C)NC(=O)CN2CCOCC2)C(=O)N[C@@H](C[C@H]2CC[C@@H](O)CC2)C(=O)[C@@]2(C)CO2)cc1` [Compound C-1001, (S)-N-((S)-3-((1s,4R)-4-hydroxycyclohexyl)-1-((R)-2-methyloxiran-2-yl)-1-oxopropan-2-yl)-3-(4-methoxyphenyl)-2-((S)-2-(2-morpholinoacetamido)propanamido)propanamide], the solubility in “Solubility pH 7” came out at 2640 µg/mL (≈ 4370 µM). The half-inhibitory concentration (IC50) in data set [1] (LLVY substrate, 1 h continuous) was 3230 nM; in data set [2] it was > 10 µM.
`C[C@H](NC(=O)CN1CCOCC1)C(=O)N[C@@H](Cc1ccccn1)C(=O)N[C@@H](Cc1ccccc1)C(=O)[C@@]1(C)CO1` [Compound C-1155]: the concentration in solution in the data set “Solubility pH 7” (solubility) was 2090 µg/mL (≈ 3790 µM). Moreover, the concentration for half-maximal inhibition (IC50) in data set [1] (setting [5]) is 252 nM.
On to `COc1ccc(C[C@H](NC(=O)[C@H](C)NC(=O)[C@H]2CCCO2)C(=O)N[C@@H](Cc2ccccc2)C(=O)[C@@]2(C)CO2)cc1` [Compound C-1166, (R)-N-((S)-1-(((S)-3-(4-methoxyphenyl)-1-(((S)-1-((R)-2-methyloxiran-2-yl)-1-oxo-3-phenylpropan-2-yl)amino)-1-oxopropan-2-yl)amino)-1-oxopropan-2-yl)tetrahydrofuran-2-carboxamide], for which the results for the IC50 in data set [3] and in data set [4] (setting [6]) were 961 nM and 360 nM, respectively. For the same compound, the solubility in the data set “Solubility pH 7” came to 536 µg/mL (≈ 971 µM).
For `COc1ccc(C[C@H](NC(=O)[C@H](C)NC(=O)[C@@H]2CCCO2)C(=O)N[C@@H](Cc2ccccc2)C(=O)[C@@]2(C)CO2)cc1` [Compound C-1167, (S)-N-((S)-1-(((S)-3-(4-methoxyphenyl)-1-(((S)-1-((R)-2-methyloxiran-2-yl)-1-oxo-3-phenylpropan-2-yl)amino)-1-oxopropan-2-yl)amino)-1-oxopropan-2-yl)tetrahydrofuran-2-carboxamide] the same measures were 526 nM, 155 nM and 790 µg/mL (≈ 1430 µM).
For `C[C@H](NC(=O)CN1CCOCC1)C(=O)N[C@@H](Cc1ccncc1)C(=O)N[C@@H](Cc1ccccc1)C(=O)[C@@]1(C)CO1` [Compound C-1171], the IC50 in data set [3] (setting [7]) was 252 nM; in data set [1] (setting [5]), 63.1 nM; in data set [4] (setting [8]) it was 51 nM. The same compound showed a solubility in the data set “Solubility pH 7” of 1680 µg/mL (≈ 3050 µM).
The matching figures for `COc1ccc(C[C@H](NC(=O)[C@@H](NC(=O)CN2CCOCC2)[C@@H](C)O)C(=O)N[C@@H](Cc2ccccc2)C(=O)[C@@]2(C)CO2)cc1` [Compound C-1173]: 114 nM, 33.6 nM, 28.9 nM and 2340 µg/mL (≈ 3840 µM).
As for `C[C@H](NC(=O)CN1CCOCC1)C(=O)N[C@@H](Cc1cccnc1)C(=O)N[C@@H](Cc1ccccc1)C(=O)[C@@]1(C)CO1` [Compound C-1175], the IC50 is 441 nM in data set [3] (setting [7]), 129 nM in data set [1] (setting [5]) and 107 nM in data set [4] (setting [8]). In “Solubility pH 7”, this compound displayed a solubility of 2480 µg/mL (≈ 4490 µM).
For the compound `COc1ccc(C[C@H](NC(=O)[C@H](C)NC(=O)NN2CCOCC2)C(=O)N[C@@H](Cc2ccccc2)C(=O)[C@@]2(C)CO2)cc1` [Compound C-1178], the IC50 in data set [3] (setting [7]) was found to be 3840 nM; in data set [1] (setting [5]) it was 241 nM; in data set [4] (setting [8]), 510 nM. The same compound had a solubility in the data set “Solubility pH 7” of 1190 µg/mL (≈ 2050 µM).
For `COc1ccc(C[C@H](NC(=O)[C@H](C)NC(=O)CC2COC2)C(=O)N[C@@H](Cc2ccccc2)C(=O)[C@@]2(C)CO2)cc1` [Compound C-1179], the concentration for half-maximal inhibition (IC50) in data set [3] (setting [7]) was 526 nM; in data set [4] (setting [8]), 119 nM. The compound also came in with a solubility in “Solubility pH 7” of 1300 µg/mL (≈ 2350 µM).
Regarding `COc1ccc(C[C@H](NC(=O)[C@H](C)NC(=O)CN2CCOCC2)C(=O)N[C@@H](Cc2cccc(F)c2)C(=O)[C@@]2(C)CO2)cc1` [Compound C-1180], the IC50 came out at 312 nM in data set [3] (setting [7]), 25.9 nM in data set [1] (setting [5]) and 21 nM in data set [4] (setting [8]). In “Solubility pH 7”, this compound had a solubility of 1380 µg/mL (≈ 2310 µM).
`COc1ccc(C[C@H](NC(=O)[C@H](C)NC(=O)CN2CCOCC2)C(=O)N[C@@H](Cc2ccc(C)cc2)C(=O)[C@@]2(C)CO2)cc1` [Compound C-1181]: the figures for the IC50 in data set [3] (setting [7]), in data set [1] (setting [5]) and in data set [4] (setting [8]) were 120 nM, 13.5 nM and 13.5 nM, respectively. Also, the solubility in the data set “Solubility pH 7” was determined as 938 µg/mL (≈ 1580 µM).
Regarding `COc1ccc(C[C@H](NC(=O)[C@@H](NC(=O)CN2CCOCC2)C2COC2)C(=O)N[C@@H](Cc2ccccc2)C(=O)[C@@]2(C)CO2)cc1` [Compound C-1183], the IC50 in data set [3] (setting [7]) stood at 101 nM; in data set [1] (setting [5]), 21.5 nM; in data set [4] (setting [8]), 17.1 nM. The amount in solution in “Solubility pH 7” (solubility) came to 4540 µg/mL (≈ 7290 µM).
The matching figures for `COc1ccc(C[C@H](NC(=O)[C@@H](NC(=O)CN2CCOCC2)C2(O)CC2)C(=O)N[C@@H](Cc2ccccc2)C(=O)[C@@]2(C)CO2)cc1` [Compound C-1184]: 63.9 nM, 10.5 nM, 19.5 nM and 2730 µg/mL (≈ 4390 µM).
Turning to `COc1ccc(C[C@H](NC(=O)[C@@H](C)NC(=O)[C@H]2CC[C@@H](O)CC2)C(=O)N[C@@H](Cc2ccccc2)C(=O)[C@@]2(C)CO2)cc1` [Compound C-1187], the figures for the IC50 in data set [3] (setting [7]) and in data set [4] (setting [8]) were 43.4 nM and 10.5 nM, respectively. This compound also showed a solubility in the data set “Solubility pH 7” of 130 µg/mL (≈ 225 µM).
In the case of `COc1ccc(C[C@H](NC(=O)[C@@H](C)NC(=O)C2CCCCC2)C(=O)N[C@@H](Cc2ccccc2)C(=O)[C@@]2(C)CO2)cc1` [Compound C-1188], the IC50 in data set [3] (setting [7]) came out at 185 nM; in data set [4] (setting [8]), 29.2 nM. In “Solubility pH 7”, this compound displayed a solubility of 12.1 µg/mL (≈ 21.5 µM).
Consider `COc1ccc(C[C@H](NC(=O)[C@@H](C)NC(=O)C2CCCC2)C(=O)N[C@@H](Cc2ccccc2)C(=O)[C@@]2(C)CO2)cc1` [Compound C-1189], for which the IC50 in data set [3] (setting [7]) came to 476 nM; in data set [4] (setting [8]), 58.5 nM. This compound also gave a solubility in the data set “Solubility pH 7” of 22.7 µg/mL (≈ 41.3 µM).
As for `COc1ccc(C[C@H](NC(=O)[C@@H](C)NC(=O)[C@H]2CC[C@H](O)CC2)C(=O)N[C@@H](Cc2ccc(C)cc2)C(=O)[C@@]2(C)CO2)cc1` [Compound C-1190], the IC50 in data set [3] (setting [7]) was 205 nM; in data set [4] (setting [8]), 16.8 nM. Further, the solubility in the data set “Solubility pH 7” amounted to 457 µg/mL (≈ 769 µM).
On to `COc1ccc(C[C@H](NC(=O)[C@@H](C)NC(=O)[C@H]2CC[C@H](O)CC2)C(=O)N[C@@H](Cc2ccc(O)cc2)C(=O)[C@@]2(C)CO2)cc1` [Compound C-1191], for which the half-inhibitory concentration (IC50) is 678 nM in data set [3] (setting [7]) and 24.7 nM in data set [4] (setting [8]). The same compound had a solubility in the data set “Solubility pH 7” of 4250 µg/mL (≈ 7130 µM).
For `COC[C@H](NC(=O)CN1CCOCC1)C(=O)N[C@@H](Cc1ccc(OC)cc1)C(=O)N[C@@H](Cc1ccccc1)C(=O)[C@@]1(C)CO1` [Compound C-1220], in data set [1] (setting [5]), the concentration for half-maximal inhibition (IC50) was determined as 11 nM.
In the case of `C=CC(=O)NC[C@H](NC(=O)[C@H](C)NC(=O)CN1CCOCC1)C(=O)N[C@@H](Cc1ccccc1)C(=O)[C@@]1(C)CO1` [Compound C-1225], the values for the IC50 in data set [3] (setting [7]), in data set [1] (setting [5]) and in data set [4] (setting [8]) were 205 nM, 18.6 nM and 49.5 nM, respectively. In addition, the solubility in “Solubility pH 7” was 3450 µg/mL (≈ 6340 µM).
In the data set “Solubility pH 7”, `C[C@H](NC(=O)CN1CCOCC1)C(=O)N[C@@H](CC1=CCCCC1)C(=O)N[C@@H](Cc1ccccc1)C(=O)[C@@]1(C)CO1` [Compound C-1227] yielded a solubility of 1980 µg/mL (≈ 3560 µM). Moreover, the IC50 in data set [1] (setting [5]) worked out at 649 nM.
Turning to `COC[C@H](NC(=O)[C@H](C)NC(=O)CN1CCOCC1)C(=O)N[C@@H](Cc1ccccc1)C(=O)[C@@]1(C)CO1` [Compound C-1234], the 50% inhibitory concentration (IC50) in data set [1] (setting [5]) was 1500 nM.
For `C[C@H](NC(=O)CN1CCOCC1)C(=O)N[C@@H](CC1CCCCC1)C(=O)N[C@@H](Cc1ccccc1)C(=O)[C@@]1(C)CO1` [Compound C-1235], the IC50 in data set [1] (setting [5]) is 390 nM.

The record behind these values is patent USRE47302E1 (ONYX THERAPEUTICS INC., priority 2013, dated 2019).
